Source: ChEMBL document CHEMBL1142358, “3-amino-benzo[d]isoxazoles as novel multitargeted inhibitors of receptor tyrosine kinases” (J Med Chem, 2008)
Each block holds one compound with its values, some of them ahead of it. Activity calls are given as the source filed them. The rule behind the calls is not given here.

Key:
[1] = target: Mast/stem cell growth factor receptor Kit (Homo sapiens, UniProt P10721); test: Inhibition of KIT by HTRF assay
[2] = target: Receptor-type tyrosine-protein kinase FLT3 (Homo sapiens) (UniProt P36888)
Description: Inhibition of FLT3 by HTRF assay

[3] = target: Vascular endothelial growth factor receptor 2 (Homo sapiens, UniProt P35968)
Chain of Vascular endothelial growth factor receptor 2 (P35968 whole entry): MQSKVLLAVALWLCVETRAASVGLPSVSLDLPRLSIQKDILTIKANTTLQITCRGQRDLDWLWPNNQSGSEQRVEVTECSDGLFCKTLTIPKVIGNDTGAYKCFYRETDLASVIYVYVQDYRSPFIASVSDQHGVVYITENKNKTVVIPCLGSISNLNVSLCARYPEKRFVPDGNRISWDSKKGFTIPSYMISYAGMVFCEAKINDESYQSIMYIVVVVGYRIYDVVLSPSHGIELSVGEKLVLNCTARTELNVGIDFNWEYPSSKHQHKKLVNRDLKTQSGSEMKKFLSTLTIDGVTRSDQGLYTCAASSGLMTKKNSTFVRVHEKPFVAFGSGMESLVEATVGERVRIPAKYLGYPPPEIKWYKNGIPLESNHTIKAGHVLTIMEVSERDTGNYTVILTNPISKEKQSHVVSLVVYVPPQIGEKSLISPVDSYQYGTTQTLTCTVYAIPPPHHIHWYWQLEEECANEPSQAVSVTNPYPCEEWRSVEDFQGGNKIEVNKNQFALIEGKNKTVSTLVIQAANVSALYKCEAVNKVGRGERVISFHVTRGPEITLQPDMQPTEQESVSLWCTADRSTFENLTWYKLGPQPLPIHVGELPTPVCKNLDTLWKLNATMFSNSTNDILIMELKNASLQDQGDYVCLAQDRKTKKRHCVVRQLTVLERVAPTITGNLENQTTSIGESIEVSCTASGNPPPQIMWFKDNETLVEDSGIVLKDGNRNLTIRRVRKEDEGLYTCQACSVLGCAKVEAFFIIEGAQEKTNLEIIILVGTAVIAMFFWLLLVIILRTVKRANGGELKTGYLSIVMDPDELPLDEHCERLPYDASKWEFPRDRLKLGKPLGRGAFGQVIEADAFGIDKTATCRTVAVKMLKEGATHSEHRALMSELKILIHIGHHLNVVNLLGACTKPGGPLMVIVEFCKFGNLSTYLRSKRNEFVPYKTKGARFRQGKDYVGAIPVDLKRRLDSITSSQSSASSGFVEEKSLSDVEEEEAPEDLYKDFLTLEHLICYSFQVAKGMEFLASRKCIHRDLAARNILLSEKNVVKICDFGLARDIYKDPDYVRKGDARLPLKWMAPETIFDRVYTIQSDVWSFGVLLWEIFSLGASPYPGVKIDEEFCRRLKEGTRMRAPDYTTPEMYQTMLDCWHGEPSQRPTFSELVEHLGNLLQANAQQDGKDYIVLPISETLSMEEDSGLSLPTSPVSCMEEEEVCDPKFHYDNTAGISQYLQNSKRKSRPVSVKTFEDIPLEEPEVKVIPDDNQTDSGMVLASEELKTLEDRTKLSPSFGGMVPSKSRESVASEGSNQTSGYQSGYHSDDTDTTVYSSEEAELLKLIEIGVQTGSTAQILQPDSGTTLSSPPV
Description: Inhibition of KDR by HTRF assay

[4] = target: T1, Receptor-type tyrosine-protein kinase FLT3 (Homo sapiens, UniProt P36888)
T1 sequence (P36888 whole entry): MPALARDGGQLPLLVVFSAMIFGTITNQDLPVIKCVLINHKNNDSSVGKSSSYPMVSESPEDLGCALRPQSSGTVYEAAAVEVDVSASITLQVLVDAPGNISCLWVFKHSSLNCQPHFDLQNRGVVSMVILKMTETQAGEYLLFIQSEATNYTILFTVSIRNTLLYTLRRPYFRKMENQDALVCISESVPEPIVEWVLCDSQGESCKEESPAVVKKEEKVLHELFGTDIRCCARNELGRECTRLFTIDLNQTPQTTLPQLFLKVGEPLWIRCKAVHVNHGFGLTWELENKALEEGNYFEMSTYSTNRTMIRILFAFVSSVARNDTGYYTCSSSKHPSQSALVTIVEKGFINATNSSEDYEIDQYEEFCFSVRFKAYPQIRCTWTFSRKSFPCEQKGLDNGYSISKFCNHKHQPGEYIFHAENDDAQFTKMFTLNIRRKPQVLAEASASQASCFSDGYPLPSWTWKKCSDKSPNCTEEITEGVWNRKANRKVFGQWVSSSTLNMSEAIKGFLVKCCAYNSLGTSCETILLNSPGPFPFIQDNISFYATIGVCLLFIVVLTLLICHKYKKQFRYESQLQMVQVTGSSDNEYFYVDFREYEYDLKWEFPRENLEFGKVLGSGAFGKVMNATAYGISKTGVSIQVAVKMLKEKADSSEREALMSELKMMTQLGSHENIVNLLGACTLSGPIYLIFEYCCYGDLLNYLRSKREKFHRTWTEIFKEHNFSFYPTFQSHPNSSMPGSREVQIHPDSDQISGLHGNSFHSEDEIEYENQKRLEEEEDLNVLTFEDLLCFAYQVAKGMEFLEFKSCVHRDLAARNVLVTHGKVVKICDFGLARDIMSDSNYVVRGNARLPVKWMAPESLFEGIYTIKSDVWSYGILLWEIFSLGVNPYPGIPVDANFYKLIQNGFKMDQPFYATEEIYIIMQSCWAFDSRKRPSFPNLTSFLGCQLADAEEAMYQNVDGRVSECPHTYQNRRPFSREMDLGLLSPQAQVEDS
Description: Inhibition of FLT3 by HTRF assay

[5] = target: Tyrosine-protein kinase Lyn (Homo sapiens, UniProt P07948); test: Inhibition of LYN by HTRF assay
Chain of Tyrosine-protein kinase Lyn (P07948 whole entry): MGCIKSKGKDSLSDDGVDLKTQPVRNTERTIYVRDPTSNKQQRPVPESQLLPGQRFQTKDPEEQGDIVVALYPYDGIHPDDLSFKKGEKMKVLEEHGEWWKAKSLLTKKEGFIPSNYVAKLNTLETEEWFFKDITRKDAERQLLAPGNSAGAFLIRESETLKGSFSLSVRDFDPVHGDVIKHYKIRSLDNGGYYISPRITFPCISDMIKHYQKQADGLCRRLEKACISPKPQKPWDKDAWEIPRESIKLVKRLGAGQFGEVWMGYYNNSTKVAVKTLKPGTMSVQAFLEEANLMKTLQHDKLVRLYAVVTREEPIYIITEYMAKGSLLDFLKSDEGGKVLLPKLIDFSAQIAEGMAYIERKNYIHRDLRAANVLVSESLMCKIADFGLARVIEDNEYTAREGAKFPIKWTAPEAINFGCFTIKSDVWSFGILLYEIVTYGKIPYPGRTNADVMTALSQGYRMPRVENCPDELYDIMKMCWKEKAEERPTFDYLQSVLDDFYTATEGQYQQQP

[6] = Half life in mouse at 3 mg/kg, iv; type: ADME, organism-based; design: dose 3 mg/kg, route intravenous; settings: in vivo
[7] = Volume of distribution in mouse at 3 mg/kg, iv; type: ADME, organism-based; design: dose 3 mg/kg, route intravenous; settings: in vivo
[8] = Clearance in mouse at 3 mg/kg, iv; type: ADME, organism-based; design: dose 3 mg/kg, route intravenous; settings: in vivo
Mus musculus = test: Inhibition of estradiol-induced uterine edema in orally dosed BALB/c mouse edema model; type: functional; settings: po
HT-1080 [9] = test: Inhibition of tumor growth in human HT1080 cells xenografted in SCID/Beige mouse at 30 mg/kg/day, bid relative to control; settings: HT-1080, read-out: TGI
[10] = AUC (0 to 24 hrs) in mouse plasma at 30 mg/kg/day; type: ADME, organism-based; design: dose 30 mg/kg/day, time < 24 hr
[11] = target: Platelet-derived growth factor receptor beta (Homo sapiens, UniProt P09619); test: Inhibition of PDGFRbeta by HTRF assay
Chain of Platelet-derived growth factor receptor beta (P09619 whole entry): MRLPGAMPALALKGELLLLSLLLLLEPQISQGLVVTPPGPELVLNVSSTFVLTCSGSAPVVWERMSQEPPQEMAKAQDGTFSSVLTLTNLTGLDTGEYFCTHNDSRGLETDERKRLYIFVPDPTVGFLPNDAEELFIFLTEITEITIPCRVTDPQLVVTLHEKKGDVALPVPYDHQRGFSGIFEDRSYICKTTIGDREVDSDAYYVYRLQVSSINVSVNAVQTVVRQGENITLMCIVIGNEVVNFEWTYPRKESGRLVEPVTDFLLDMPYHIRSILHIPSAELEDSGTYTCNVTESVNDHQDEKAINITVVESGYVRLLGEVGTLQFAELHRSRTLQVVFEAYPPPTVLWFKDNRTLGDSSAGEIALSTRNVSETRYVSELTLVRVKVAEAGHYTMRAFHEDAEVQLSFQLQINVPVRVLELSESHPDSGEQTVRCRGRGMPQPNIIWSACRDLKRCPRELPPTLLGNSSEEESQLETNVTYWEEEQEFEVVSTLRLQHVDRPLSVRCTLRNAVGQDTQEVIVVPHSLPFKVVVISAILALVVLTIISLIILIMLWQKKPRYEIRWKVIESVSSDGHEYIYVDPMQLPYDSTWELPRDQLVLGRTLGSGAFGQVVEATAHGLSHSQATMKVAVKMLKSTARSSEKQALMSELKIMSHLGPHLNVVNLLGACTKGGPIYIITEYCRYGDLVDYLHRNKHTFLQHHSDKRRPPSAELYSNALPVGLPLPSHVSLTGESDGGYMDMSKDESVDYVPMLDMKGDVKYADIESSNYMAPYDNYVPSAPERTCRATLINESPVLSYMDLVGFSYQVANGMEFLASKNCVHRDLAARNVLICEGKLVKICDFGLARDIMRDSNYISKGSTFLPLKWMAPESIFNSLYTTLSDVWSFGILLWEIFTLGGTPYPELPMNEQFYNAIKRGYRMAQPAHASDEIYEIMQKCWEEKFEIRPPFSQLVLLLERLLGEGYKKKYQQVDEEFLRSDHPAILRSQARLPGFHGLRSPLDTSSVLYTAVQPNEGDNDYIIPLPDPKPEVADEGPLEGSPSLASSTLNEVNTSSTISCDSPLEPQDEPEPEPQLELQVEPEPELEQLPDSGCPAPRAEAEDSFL

Angiopoietin-1 receptor = Angiopoietin-1 receptor (Homo sapiens, UniProt Q02763); test: Inhibition of TIE2 by HTRF assay
[12] = target: Tyrosine-protein kinase HCK (Homo sapiens, UniProt P08631); test: Inhibition of HCK by HTRF assay
Chain of Tyrosine-protein kinase HCK (P08631 whole entry): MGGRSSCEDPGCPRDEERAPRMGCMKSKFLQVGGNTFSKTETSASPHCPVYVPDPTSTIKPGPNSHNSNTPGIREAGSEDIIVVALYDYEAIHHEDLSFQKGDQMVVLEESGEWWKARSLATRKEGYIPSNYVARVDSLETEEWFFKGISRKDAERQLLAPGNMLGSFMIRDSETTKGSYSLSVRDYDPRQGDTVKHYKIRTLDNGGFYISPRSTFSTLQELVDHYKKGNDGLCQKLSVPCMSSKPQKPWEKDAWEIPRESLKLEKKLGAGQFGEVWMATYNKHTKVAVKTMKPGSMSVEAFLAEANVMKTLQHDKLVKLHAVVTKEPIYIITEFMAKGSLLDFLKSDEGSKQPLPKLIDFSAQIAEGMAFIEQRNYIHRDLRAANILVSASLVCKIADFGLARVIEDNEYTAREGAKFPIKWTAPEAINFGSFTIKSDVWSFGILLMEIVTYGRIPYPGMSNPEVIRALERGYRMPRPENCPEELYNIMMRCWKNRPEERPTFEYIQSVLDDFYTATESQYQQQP

[13] = target: Proto-oncogene tyrosine-protein kinase Src (Homo sapiens, UniProt P12931); test: Inhibition of SRC by HTRF assay
Chain of Proto-oncogene tyrosine-protein kinase Src (P12931 2-536 limits assumed): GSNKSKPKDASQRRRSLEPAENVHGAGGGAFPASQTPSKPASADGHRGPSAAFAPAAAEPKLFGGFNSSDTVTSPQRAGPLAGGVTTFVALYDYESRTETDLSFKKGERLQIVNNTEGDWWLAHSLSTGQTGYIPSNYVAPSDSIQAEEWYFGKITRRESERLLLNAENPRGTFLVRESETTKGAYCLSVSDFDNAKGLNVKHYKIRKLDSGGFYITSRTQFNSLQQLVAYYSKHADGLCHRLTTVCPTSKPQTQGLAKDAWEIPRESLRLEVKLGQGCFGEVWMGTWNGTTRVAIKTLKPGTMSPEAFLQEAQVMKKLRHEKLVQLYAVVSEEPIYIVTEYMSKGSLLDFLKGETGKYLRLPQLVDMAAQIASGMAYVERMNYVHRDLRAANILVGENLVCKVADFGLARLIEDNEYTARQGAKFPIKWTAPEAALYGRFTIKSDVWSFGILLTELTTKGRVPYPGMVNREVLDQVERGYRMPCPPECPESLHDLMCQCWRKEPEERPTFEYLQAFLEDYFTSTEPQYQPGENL

[14] = Oral bioavailability in mouse at 10 mg/kg; type: ADME, organism-based; settings: in vivo
[15] = AUC in mouse at 10 mg/kg, po; type: ADME, organism-based; design: dose 10 mg/kg, route oral; settings: plasma
[16] = target: Macrophage colony-stimulating factor 1 receptor (Homo sapiens, UniProt P07333); test: Inhibition of CSF1R by HTRF assay
[17] = target: Vascular endothelial growth factor receptor 1 (Homo sapiens, UniProt P17948); test: Inhibition of FLT1 by HTRF assay
[18] = target: Voltage-gated inwardly rectifying potassium channel KCNH2 (Homo sapiens, UniProt Q12809)
Description: Displacement of [3H]dofetilide from human ERG expressed in HEK293 cells

[19] = Inhibition of FGFR by HTRF assay
[20] = Half life in mouse at 1 mg/kg, iv; type: ADME, organism-based; design: dose 1 mg/kg, route intravenous; settings: in vivo
[21] = Volume of distribution in mouse at 1 mg/kg, iv; type: ADME, organism-based; design: dose 1 mg/kg, route intravenous; settings: in vivo
[22] = Clearance in mouse at 1 mg/kg, iv; type: ADME, organism-based; design: dose 1 mg/kg, route intravenous; settings: in vivo
HT-1080 [23] = test: Inhibition of tumor growth in human HT1080 cells xenografted in SCID/Beige mouse at 10 mg/kg/day, bid relative to control; type: functional; settings: read-out: TGI
[24] = AUC (0 to 24 hrs) in mouse plasma at 10 mg/kg/day; type: ADME, organism-based; design: time < 24 hr, dose 10 mg/kg/day

Chain of Mast/stem cell growth factor receptor Kit (P10721 whole entry): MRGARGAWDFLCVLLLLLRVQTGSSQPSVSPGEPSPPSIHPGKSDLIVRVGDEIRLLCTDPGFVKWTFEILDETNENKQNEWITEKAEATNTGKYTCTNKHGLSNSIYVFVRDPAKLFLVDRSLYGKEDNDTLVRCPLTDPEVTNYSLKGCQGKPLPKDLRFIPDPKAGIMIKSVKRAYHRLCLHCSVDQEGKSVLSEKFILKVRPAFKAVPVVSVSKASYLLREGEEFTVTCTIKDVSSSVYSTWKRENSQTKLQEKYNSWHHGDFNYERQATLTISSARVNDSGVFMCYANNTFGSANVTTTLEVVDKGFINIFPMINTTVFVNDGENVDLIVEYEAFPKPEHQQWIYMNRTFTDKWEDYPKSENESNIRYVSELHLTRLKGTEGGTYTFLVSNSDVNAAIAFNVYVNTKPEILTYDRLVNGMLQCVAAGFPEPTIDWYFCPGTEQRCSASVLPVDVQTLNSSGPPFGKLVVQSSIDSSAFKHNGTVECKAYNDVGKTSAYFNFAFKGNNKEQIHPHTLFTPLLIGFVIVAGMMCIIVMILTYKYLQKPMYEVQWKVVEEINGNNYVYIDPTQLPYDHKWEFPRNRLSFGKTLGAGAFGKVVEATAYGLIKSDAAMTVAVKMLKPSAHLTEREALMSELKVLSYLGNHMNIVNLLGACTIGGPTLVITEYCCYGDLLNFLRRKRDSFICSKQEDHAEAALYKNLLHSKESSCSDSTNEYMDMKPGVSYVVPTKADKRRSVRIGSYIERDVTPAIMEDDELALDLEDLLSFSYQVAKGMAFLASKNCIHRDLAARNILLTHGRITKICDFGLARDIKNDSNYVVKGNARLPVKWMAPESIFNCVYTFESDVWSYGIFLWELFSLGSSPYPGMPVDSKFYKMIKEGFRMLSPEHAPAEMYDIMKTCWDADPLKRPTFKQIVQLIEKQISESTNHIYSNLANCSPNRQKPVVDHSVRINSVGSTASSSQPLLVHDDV

SMILES: Cc1ccc(F)c(NC(=O)Nc2ccc(-c3ccc(CN4CCOCC4)c4onc(N)c34)cc2)c1
IC50 [1]: 114 nM
IC50 [3]: 365 nM
IC50 [4]: 82 nM

SMILES: Cc1ccc(F)c(NC(=O)Nc2ccc(-c3ccc(OC(F)(F)F)c4onc(N)c34)cc2)c1
IC50 [1]: 294 nM
IC50 [4]: 58 nM

SMILES: Cc1ccc(F)c(NC(=O)Nc2ccc(-c3cccc4[nH]nc(N)c34)cc2)c1 [LINIFANIB]
IC50 [5]: > 50000 nM
half-life [6]: 1.7 h
Vd [7]: 2.7 L/kg
clearance [8]: 18.3 mL/min/kg
ED50 (Mus musculus): 0.4 mg/kg
inhibition in vivo at 30 mg/kg/day (HT-1080 [9]): 85%
AUC at 24 h [10]: 19.1 µM·h

SMILES: COc1ccc(-c2ccc(NC(=O)Nc3cc(C)ccc3F)cc2)c2c(N)noc12
IC50 [11]: 96 nM
IC50 (Angiopoietin-1 receptor): 249 nM
IC50 [12]: > 50000 nM
IC50 [13]: > 50000 nM
IC50 [5]: > 50000 nM
half-life [6]: 0.66 h
Vd [7]: 0.94 L/kg
clearance [8]: 16.7 mL/min/kg
bioavailability [14]: 34%
AUC [15]: 8.5 µM·h
ED50 (Mus musculus): 3.2 mg/kg
inhibition in vivo at 30 mg/kg/day (HT-1080 [9]): 55%
IC50 [1]: 43 nM
IC50 [16]: 27 nM
IC50 [17]: 24 nM
IC50 [18]: > 30000 nM
IC50 [4]: 36 nM

SMILES: Nc1noc2cccc(-c3ccc(NC(=O)c4ccccc4)cc3)c12
IC50 [1]: > 12500 nM
IC50 [3]: > 12500 nM
IC50 [4]: > 12500 nM

SMILES: Nc1nsc2cccc(-c3ccc(NC(=O)Nc4cccc(C(F)(F)F)c4)cc3)c12
IC50 [1]: 2630 nM
IC50 [3]: 247 nM
IC50 [4]: 1260 nM

SMILES: Nc1noc2cccc(-c3ccc(NC(=O)Nc4ccccc4C(F)(F)F)cc3)c12
IC50 [1]: 23400 nM

SMILES: COc1ccc(-c2ccc(NC(=O)Nc3cccc(Br)c3)cc2)c2c(N)noc12
half-life [6]: 1.9 h
Vd [7]: 3.1 L/kg
clearance [8]: 18.3 mL/min/kg
bioavailability [14]: 71%
AUC [15]: 13.8 µM·h
ED50 (Mus musculus): 1 mg/kg

SMILES: NC(=O)Nc1ccc(-c2cccc3onc(N)c23)cc1
IC50 [1]: 4440 nM

More lines, in order of falling IC50 [1], values ahead:

IC50 [1]: 71 nM
IC50 [4]: 34 nM
SMILES: Cc1ccc(F)c(NC(=O)Nc2ccc(-c3ccc(OCCN4CCOCC4)c4onc(N)c34)cc2)c1

IC50 [1]: 64 nM
IC50 [4]: 61 nM
SMILES: Cc1ccc(F)c(NC(=O)Nc2ccc(-c3ccc(C)c4onc(N)c34)cc2)c1

half-life [6]: 1.2 h
Vd [7]: 1.4 L/kg
clearance [8]: 13.2 mL/min/kg
bioavailability [14]: 100%
AUC [15]: 33.1 µM·h
IC50 [1]: 62 nM
IC50 [4]: 28 nM
SMILES: Nc1noc2cccc(-c3ccc(NC(=O)Nc4ccc(F)c(C(F)(F)F)c4)cc3)c12
ED50 (Mus musculus): 5.4 mg/kg
inhibition in vivo at 30 mg/kg/day (HT-1080 [9]): 63%

IC50 [11]: 130 nM
IC50 (Angiopoietin-1 receptor): 270 nM
IC50 [19]: 3000 nM
IC50 [12]: > 50000 nM
IC50 [13]: > 50000 nM
IC50 [5]: > 50000 nM
half-life [20]: 0.9 h
Vd [21]: 2.2 L/kg
clearance [22]: 28.3 mL/min/kg
bioavailability [14]: 100%
AUC [15]: 30.6 µM·h
AUC at 24 h [24]: 13.2 µM·h
IC50 [1]: 56 nM
IC50 [16]: 30 nM
IC50 [17]: 16 nM
IC50 [4]: 19 nM
SMILES: COc1ccc(-c2ccc(NC(=O)Nc3cccc(C(F)(F)F)c3)cc2)c2c(N)noc12
ED50 (Mus musculus): 2 mg/kg
inhibition in vivo at 10 mg/kg/day (HT-1080 [23]): 81%

IC50 [1]: 36 nM
IC50 [4]: 22 nM
SMILES: Nc1noc2cccc(-c3ccc(NC(=O)Nc4ccc(F)c(Cl)c4)cc3)c12

IC50 [1]: 21 nM
SMILES: Nc1noc2cccc(-c3ccc(NC(=O)Nc4ccccc4F)cc3)c12

IC50 [1]: 14 nM
Activity [2]: inactive
SMILES: Nc1noc2cccc(-c3ccc(NC(=O)Nc4cc(F)cc(F)c4)cc3)c12

IC50 [1]: 14 nM
IC50 [4]: 5 nM
SMILES: Nc1noc2cccc(-c3ccc(NC(=O)Nc4cccc([N+](=O)[O-])c4)cc3)c12

IC50 [1]: 11 nM
Activity [2]: inactive
SMILES: Nc1noc2cccc(-c3ccc(NC(=O)Nc4cccc(F)c4)cc3)c12

IC50 [1]: 7 nM
Activity [2]: inactive
SMILES: Nc1noc2cccc(-c3ccc(NC(=O)Nc4cccc(Br)c4)cc3)c12

IC50 [1]: 4 nM
Activity [2]: inactive
SMILES: COc1cccc(NC(=O)Nc2ccc(-c3cccc4onc(N)c34)cc2)c1
